Results reported in US9650395B2, “Antibacterial compounds and methods for use” (PTC Therapeutics, Inc., priority 2011, dated 2017).
Converted amounts (≈) assume the structure as drawn. Read-outs that look alike come from different tables or passages of the source.

Key:
[1] = system: control Gram-negative E. coli 25922 strain; assay: Antibacterial activity, microbroth dilution MIC, E. coli 25922; format: cell-based, Escherichia coli; settings: Escherichia coli; E. coli 25922, microbroth dilution; read-out: MIC, 25922
[2] = system: super sensitive Gram-negative Escherichia coli (E. coli) BAS849; assay: Antibacterial activity, microbroth dilution MIC, E. coli BAS849; format: cell-based; settings: Escherichia coli; E. coli BAS849, microbroth dilution; read-out: MIC, BAS849
[3] = system: Klebsiella pneumoniae (K. pneumoniae) 35657; assay: Antibacterial activity, MIC, K. pneumoniae 35657; format: cell-based; settings: Klebsiella pneumoniae
[4] = system: Acinetobacter baumannii (A. baumannii) BAA747; assay: Antibacterial activity, MIC, A. baumannii BAA747; format: cell-based; settings: Acinetobacter baumannii; A. baumannii BAA747; read-out: MIC BAA747
[5] = system: resistant A. baumannii MXX2240 (MDR clinical isolate); assay: Antibacterial activity, MIC, resistant A. baumannii MXX2240; format: cell-based, Acinetobacter baumannii; settings: Acinetobacter baumannii, read-out: MIC MMX2240
[6] = system: quinolone resistant E. coli LZ3111; assay: Antibacterial activity, MIC, quinolone resistant E. coli LZ3111; format: cell-based, Escherichia coli; settings: Escherichia coli, read-out: MIC, LZ3111
From the text: (§1) The antibacterial activity from a microbroth dilution method may be presented as the minimum inhibitory concentration (MIC in […]). The MIC value is the lowest concentration of a drug which prevents macroscopically visible bacterial growth under test conditions.
Mutations in these regions are known to confer a high level resistance to the quinolone class of antibiotics.

[7] = system: Pseudomonas aeruginosa (P. aeruginosa) 27853; assay: Antibacterial activity, MIC, P. aeruginosa 27853; format: cell-based; settings: Pseudomonas aeruginosa, P. aeruginosa 27853; read-out: MIC 27853
From the text: as §1
Antibacterial activity of test compounds against the Gram-negative bacterium Pseudomonas aeruginosa (P. aeruginosa) 27853 is shown in Table 5.

[8] = system: Gram-positive Staphylococcus aureus (S. aureus) 29213; assay: Antibacterial activity, microbroth dilution MIC, S. aureus 29213; format: cell-based; settings: Staphylococcus aureus; S. aureus 29213, microbroth dilution; read-out: MIC, 29213
[9] = system: resistant K. pneumoniae MXX1232 (MDR clinical isolate); assay: Antibacterial activity, MIC, resistant K. pneumoniae MXX1232; format: cell-based, Klebsiella pneumoniae; settings: Klebsiella pneumoniae, read-out: MIC MMX1232
[10] = resistant A. baumannii MMX2240, MDR clinical isolate
[11] = resistant K. pneumoniae MMX1232, MDR clinical isolate

Structure (SMILES) | MIC [1] | MIC [2] | MIC [3] | MIC [4] | MIC [5, 10] | MIC [6] | MIC [7] | MIC [8] | MIC [9, 11] | MIC [5] | MIC [9]
CCc1c(-c2ccc(N3CCC(N(C)C)C3)nc2)[nH]c(=O)c(C(=O)O)c1O (stereo not drawn) [Cpd 335, 6-(6-(3-(dimethylamino)pyrrolidin-1-yl)pyridin-3-yl)-5-ethyl-4-hydroxy-2-oxo-1,2-dihydropyridine-3-carboxylic acid] | 12.5 to 150 µg/mL (≈ 33.6 to 403 µM) | 3.5 to 12.5 µg/mL (≈ 9.4 to 33.6 µM) | 12.5 to 150 µg/mL (≈ 33.6 to 403 µM) | 12.5 to 150 µg/mL (≈ 33.6 to 403 µM) | 12.5 to 150 µg/mL (≈ 33.6 to 403 µM) | < 1 µg/mL | 12.5 to 150 µg/mL (≈ 33.6 to 403 µM) | 12.5 to 150 µg/mL (≈ 33.6 to 403 µM) | 12.5 to 150 µg/mL (≈ 33.6 to 403 µM) |  | 
CCc1c(-c2ccc(N3CCCC3)nc2)[nH]c(=O)c(C(=O)O)c1O [Cpd 336, 5-ethyl-4-hydroxy-2-oxo-6-(6-(pyrrolidin-1-yl)pyridin-3-yl)-1,2-dihydropyridine-3-carboxylic acid] | 12.5 to 150 µg/mL (≈ 38 to 455 µM) | 1 to 3.5 µg/mL (≈ 3.04 to 10.6 µM) | 12.5 to 150 µg/mL (≈ 38 to 455 µM) | 12.5 to 150 µg/mL (≈ 38 to 455 µM) | 12.5 to 150 µg/mL (≈ 38 to 455 µM) | 3.5 to 12.5 µg/mL (≈ 10.6 to 38 µM) | 12.5 to 150 µg/mL (≈ 38 to 455 µM) | 12.5 to 150 µg/mL (≈ 38 to 455 µM) | 12.5 to 150 µg/mL (≈ 38 to 455 µM) |  | 
Cc1c(-c2ccc(N3CCC(N(C)C)C3)nc2)[nH]c(=O)c(C(=O)O)c1O (stereo not drawn) [Cpd 337, 6-(6-(3-(dimethylamino)pyrrolidin-1-yl)pyridin-3-yl)-4-hydroxy-5-methyl-2-oxo-1,2-dihydropyridine-3-carboxylic acid] | 12.5 to 150 µg/mL (≈ 34.9 to 419 µM) | 12.5 to 150 µg/mL (≈ 34.9 to 419 µM) | 12.5 to 150 µg/mL (≈ 34.9 to 419 µM) | 12.5 to 150 µg/mL (≈ 34.9 to 419 µM) | 12.5 to 150 µg/mL (≈ 34.9 to 419 µM) | < 1 µg/mL | 12.5 to 150 µg/mL (≈ 34.9 to 419 µM) | 12.5 to 150 µg/mL (≈ 34.9 to 419 µM) | 12.5 to 150 µg/mL (≈ 34.9 to 419 µM) |  | 
CCc1c(-c2ccc(C3CCN(C)CC3)cc2)[nH]c(=O)c(C(=O)O)c1O [Cpd 338, 5-ethyl-4-hydroxy-6-(4-(1-methylpiperidin-4-yl)phenyl)-2-oxo-1,2-dihydropyridine-3-carboxylic acid] | 12.5 to 150 µg/mL (≈ 35.1 to 421 µM) | 12.5 to 150 µg/mL (≈ 35.1 to 421 µM) | 12.5 to 150 µg/mL (≈ 35.1 to 421 µM) | 12.5 to 150 µg/mL (≈ 35.1 to 421 µM) | 12.5 to 150 µg/mL (≈ 35.1 to 421 µM) | 12.5 to 150 µg/mL (≈ 35.1 to 421 µM) | 12.5 to 150 µg/mL (≈ 35.1 to 421 µM) | 12.5 to 150 µg/mL (≈ 35.1 to 421 µM) | 12.5 to 150 µg/mL (≈ 35.1 to 421 µM) |  | 
CCc1c(-c2ccc(C3CCN(CC)CC3)cc2)[nH]c(=O)c(C(=O)O)c1O [Cpd 339, 5-ethyl-6-(4-(1-ethylpiperidin-4-yl)phenyl)-4-hydroxy-2-oxo-1,2-dihydropyridine-3-carboxylic acid] | 12.5 to 150 µg/mL (≈ 33.7 to 405 µM) | 3.5 to 12.5 µg/mL (≈ 9.45 to 33.7 µM) | 12.5 to 150 µg/mL (≈ 33.7 to 405 µM) | 12.5 to 150 µg/mL (≈ 33.7 to 405 µM) | 12.5 to 150 µg/mL (≈ 33.7 to 405 µM) | 12.5 to 150 µg/mL (≈ 33.7 to 405 µM) | 12.5 to 150 µg/mL (≈ 33.7 to 405 µM) | 12.5 to 150 µg/mL (≈ 33.7 to 405 µM) | 12.5 to 150 µg/mL (≈ 33.7 to 405 µM) |  | 
CCc1c(-c2ccc(C3=CCNCC3)cc2)[nH]c(=O)c(C(=O)O)c1O [Cpd 340, 5-ethyl-4-hydroxy-2-oxo-6-(4-(1,2,3,6-tetrahydropyridin-4-yl)phenyl)-1,2-dihydropyridine-3-carboxylic acid] | 12.5 to 150 µg/mL (≈ 36.7 to 441 µM) | 3.5 to 12.5 µg/mL (≈ 10.3 to 36.7 µM) | 3.5 to 12.5 µg/mL (≈ 10.3 to 36.7 µM) | 12.5 to 150 µg/mL (≈ 36.7 to 441 µM) |  | 12.5 to 150 µg/mL (≈ 36.7 to 441 µM) | 12.5 to 150 µg/mL (≈ 36.7 to 441 µM) | 12.5 to 150 µg/mL (≈ 36.7 to 441 µM) |  | 12.5 to 150 µg/mL (≈ 36.7 to 441 µM) | 12.5 to 150 µg/mL (≈ 36.7 to 441 µM)
CCc1c(-c2ccc(C3=CCN(CC)CC3)cc2)[nH]c(=O)c(C(=O)O)c1O [Cpd 341, 5-ethyl-6-(4-(1-ethyl-1,2,3,6-tetrahydropyridin-4-yl)phenyl)-4-hydroxy-2-oxo-1,2-dihydropyridine-3-carboxylic acid] | 12.5 to 150 µg/mL (≈ 33.9 to 407 µM) | 1 to 3.5 µg/mL (≈ 2.71 to 9.5 µM) | 3.5 to 12.5 µg/mL (≈ 9.5 to 33.9 µM) | 12.5 to 150 µg/mL (≈ 33.9 to 407 µM) |  | 3.5 to 12.5 µg/mL (≈ 9.5 to 33.9 µM) | 12.5 to 150 µg/mL (≈ 33.9 to 407 µM) | 12.5 to 150 µg/mL (≈ 33.9 to 407 µM) |  | 12.5 to 150 µg/mL (≈ 33.9 to 407 µM) | 12.5 to 150 µg/mL (≈ 33.9 to 407 µM)
CCc1c(-c2ccc(C3=CCN(C)CC3)cc2)[nH]c(=O)c(C(=O)O)c1O [Cpd 342, 5-ethyl-4-hydroxy-6-(4-(1-methyl-1,2,3,6-tetrahydropyridin-4-yl)phenyl)-2-oxo-1,2-dihydropyridine-3-carboxylic acid] | 3.5 to 12.5 µg/mL (≈ 9.88 to 35.3 µM) | 1 to 3.5 µg/mL (≈ 2.82 to 9.88 µM) | 3.5 to 12.5 µg/mL (≈ 9.88 to 35.3 µM) | 12.5 to 150 µg/mL (≈ 35.3 to 423 µM) |  | 3.5 to 12.5 µg/mL (≈ 9.88 to 35.3 µM) | 12.5 to 150 µg/mL (≈ 35.3 to 423 µM) | 12.5 to 150 µg/mL (≈ 35.3 to 423 µM) |  | 12.5 to 150 µg/mL (≈ 35.3 to 423 µM) | 12.5 to 150 µg/mL (≈ 35.3 to 423 µM)
CCc1c(-c2ccc(CCN(C)C)cc2)[nH]c(=O)c(C(=O)O)c1O [Cpd 343, 6-(4-(2-(dimethylamino)ethyl)phenyl)-5-ethyl-4-hydroxy-2-oxo-1,2-dihydropyridine-3-carboxylic acid] | 12.5 to 150 µg/mL (≈ 37.8 to 454 µM) | 3.5 to 12.5 µg/mL (≈ 10.6 to 37.8 µM) | 12.5 to 150 µg/mL (≈ 37.8 to 454 µM) | 12.5 to 150 µg/mL (≈ 37.8 to 454 µM) | 12.5 to 150 µg/mL (≈ 37.8 to 454 µM) | 12.5 to 150 µg/mL (≈ 37.8 to 454 µM) | 12.5 to 150 µg/mL (≈ 37.8 to 454 µM) | 12.5 to 150 µg/mL (≈ 37.8 to 454 µM) | 12.5 to 150 µg/mL (≈ 37.8 to 454 µM) |  | 
